Test results reported in US11959083B2, “Immunosuppression-reverting oligonucleotides inhibiting the expression of CD39” (Secarna Pharmaceuticals GmbH & Co. KG, priority 2016, dated 2024).
l = locked nucleic acid (LNA); d = 2'-deoxy (DNA)

Columns and labels:
hCD39 mRNA [1] = test: hCD39 mRNA knockdown efficacy screen in A-172 cells (single dose, gymnotic delivery, QuantiGene Singleplex); assay type: cell-based, human; conditions: 10 μM; for Mean hCD39 mRNA expression (relative to untreated cells set as 1): first screening round; for Mean hCD39 mRNA expression (relative to untreated cells set as 1) / Relative hCD39 mRNA expression (compared to non-treated cells): normalized to HPRT1; for Relative hCD39 mRNA expression (compared to non-treated cells): second screening round
Procedure, shortened: (§1)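 Antisense oligonucleotides given once at 10 μM without transfection reagent (gymnotic) to HDLM-2 or A-172 cells for 3 days. hCD39 mRNA measured by QuantiGene Singleplex, normalized to HPRT1 and expressed relative to untreated cells; triplicate means.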

hCD39 protein = test: Concentration- and time-dependent hCD39 protein knockdown in HDLM-2 cells (flow cytometry); assay type: cell-based, human; conditions: for Inhibition [%] (Protein/mRNA): HDLM-2, CD39 protein; for inhibition of hCD39 protein: HDLM-2 cells, three, four and six days, different concentrations
Protocol: FIG. 8 depicts concentration- and time-dependent CD39 protein knockdown by A04040H (SEQ ID No. 3) and A04045H (SEQ ID No. 4). Analysis of CD39 protein expression by flow cytometry in HDML-2 cells is given after treatment with the indicated antisense oligonucleotides for 3, 4 and 6 days. As treatment control, cells were treated with neg1 for 3, 4 and 6 days at the indicated concentrations. Relative expression compared to untreated control cells (=1) is depicted.
HDLM-2 cells were therefore treated with different concentrations of the respective antisense oligonucleotide for three, four and six days, respectively. Protein expression was analyzed by flow cytometry using the CD39 antibody (clone A1) and 7-AAD to investigate viability. […] Table 13summarizes protein knockdown efficiency of the selected human CD39 antisense oligonucleotides A04040H (SEQ ID No. 3) and A04045H (SEQ ID No. 4) in HDLM-2 cells at different time points: […]

hCD39 mRNA [2] = test: hCD39 mRNA knockdown efficacy screen in HDLM-2 cells (single dose, gymnotic delivery, QuantiGene Singleplex); assay type: cell-based, human; conditions: 10 μM; for Mean hCD39 mRNA expression normalized to HPRT1 relative to untreated control = 1: first screening round; for Relative hCD39 mRNA expression (compared to non-treated cells): second screening round, normalized to HPRT1
Procedure, shortened: as §1

hCD39 = test: ATP degradation in primary human CD8+ T cells after hCD39 knockdown (ATP Bioluminescence Assay); assay type: cell-based; conditions: for Relative ATP levels in supernatants of CD8+ T cells 30 minutes after addition of ATP: 5 μM oligonucleotide 6 days, medium = 1
Protocol: FIG. 11A-11D show knockdown of hCD39 protein (FIG. 11A) and viability (FIG. 11B) of primary human CD8^+ T cells, isolated from peripheral blood using MACS. CD8^+ T cells were activated by plate-bound anti-human CD3 (OKT-3). Activated cells were treated with RPMI-1640 medium, medium supplemented with A04040H (SEQ ID No. 3), and medium supplemented with neg1 at 5 μM, respectively, for 6 days in total. After 3 days, medium was replaced with fresh medium containing 5 μM of A04040H (SEQ ID No. 3) and neg 1, respectively, and hCD39 protein knockdown efficacy (FIG. 11A) and viability (FIG. 11B) were analyzed on day 6 by flow cytometry. Residual hCD39 expression and viability (median of 7-AAD positive cells) is depicted compared to untreated cells (FIG. 11A-11B). The same day, cells were harvested, washed and re-plated at a constant cell number (150.000 cells/Well in a 96-Well plate) in triplicates. Then, 2 μM (FIG. 11C) or 20 μM (FIG. 11D) of ATP was added to cells or cell culture medium without cells and ATP concentration of cell supernatants or cell culture medium was determined after 30 min using the ATP Bioluminescence Assay Kit (Roche).
Additionally, the effect of hCD39 knockdown on ATP degradation was also analyzed in primary human CD8^+ T cells (FIG. 11A-11D). Activated T cells were treated with 5 μM antisense oligonucleotide A04040H (SEQ ID No. 3) or the negative control oligonucleotide neg1 for 6 days (3+3). After 3 days, RPMI-1640 medium was replaced with fresh RPMI-1640 medium containing […] of antisense oligonucleotide. Protein knockdown efficacy (FIG. 11A) and viability (FIG. 11B) were analyzed after 6 days by flow cytometry. […] On day 6, cells were re-plated at a constant cell number and ATP was added at concentrations of 2 μM (FIG. 11C) or 20 μM (FIG. 11D). ATP concentration was measured in the cell supernatants or in cell culture medium after 30 min (Table 15).

## +G*+T*+T*T*G*T*G*T*G*A*G*A*G*C*+T*+T (antisense GTTTGTGTGAGAGCTT; sugars from the 5' end l3 d11 l2, all phosphorothioate, methylation of C not given here) [A04040H]
hCD39 mRNA [1]; 3 days
  Mean hCD39 mRNA expression (relative to untreated cells set as 1): 0.07
  Relative hCD39 mRNA expression (compared to non-treated cells): 0.04
hCD39 mRNA [1]; 3 days, third screening round
  Residual hCD39 mRNA expression relative to untreated cells (set as 1): 0.05
hCD39 protein; Day 3, 0.1 μM
  Inhibition [%] (Protein/mRNA): 46.73%
hCD39 protein; Day 3, 0.5 μM
  Inhibition [%] (Protein/mRNA): 54.75%
hCD39 protein; Day 3, 1 μM
  Inhibition [%] (Protein/mRNA): 60.56%
hCD39 protein; Day 3, 10 μM
  Inhibition [%] (Protein/mRNA): 61.36%
hCD39 protein; Day 4, 0.1 μM
  Inhibition [%] (Protein/mRNA): 70.73%
hCD39 protein; Day 4, 0.5 μM
  Inhibition [%] (Protein/mRNA): 78.25%
hCD39 protein; Day 4, 1 μM
  Inhibition [%] (Protein/mRNA): 76.96%
hCD39 protein; Day 4, 10 μM
  Inhibition [%] (Protein/mRNA): 79.11%
hCD39 protein; Day 6, 0.1 μM
  Inhibition [%] (Protein/mRNA): 87.37%
hCD39 protein; Day 6, 0.5 μM
  Inhibition [%] (Protein/mRNA): 89.36%
hCD39 protein; Day 6, 1 μM
  Inhibition [%] (Protein/mRNA): 84.12%
hCD39 protein; Day 6, 10 μM
  Inhibition [%] (Protein/mRNA): 88.84%
hCD39 protein
  inhibition of hCD39 protein: potent inhibition of hCD39 protein after all indicated time points
hCD39 mRNA [2]; 3 days
  Mean hCD39 mRNA expression normalized to HPRT1 relative to untreated control = 1: 0.08
  Relative hCD39 mRNA expression (compared to non-treated cells): 0.06
hCD39 mRNA [2]; 3 days, third screening round
  Residual hCD39 mRNA expression relative to untreated cells (set as 1): 0.01
hCD39; Added ATP (2 μmol/1)
  Relative ATP levels in supernatants of CD8+ T cells 30 minutes after addition of ATP: 0.59
hCD39; Added ATP (20 μmol/1)
  Relative ATP levels in supernatants of CD8+ T cells 30 minutes after addition of ATP: 0.89
hCD39; primary human CD8+ T cells, 5 μM, 6 days
  ATP concentration compared to neg 1 treated cells: about 7 ×
hCD39; primary human CD8+ T cells, 5 μM, 6 days, 2 or 20 μM ATP, 30 min
  ATP degradation efficacy: nearly abolished

## +C*+G*+T*T*T*A*G*G*C*T*A*T*G*T*A*+C*+T*+T (CGTTTAGGCTATGTACTT; chemistry not fully specified) [neg1, negative control antisense oligonucleotide not hybridizing with CD39, described in WO2014154843 A1, reference compound]
hCD39 mRNA [1]
  influence on the expression of hCD39: no negative influence on the expression of hCD39
hCD39 mRNA [1]; 3 days
  Mean hCD39 mRNA expression (relative to untreated cells set as 1): 1.36
  Relative hCD39 mRNA expression (compared to non-treated cells): 0.79
hCD39 protein
  inhibition of hCD39 protein: no inhibitory effect
hCD39 mRNA [2]
  influence on the expression of hCD39: no negative influence on the expression of hCD39
hCD39 mRNA [2]; 3 days
  Mean hCD39 mRNA expression normalized to HPRT1 relative to untreated control = 1: 1.09
  Relative hCD39 mRNA expression (compared to non-treated cells): 1.09
hCD39; Added ATP (2 μmol/1)
  Relative ATP levels in supernatants of CD8+ T cells 30 minutes after addition of ATP: 0
hCD39; Added ATP (20 μmol/1)
  Relative ATP levels in supernatants of CD8+ T cells 30 minutes after addition of ATP: 0.12
